Assay results as given in ChEMBL document CHEMBL1201862, “PubChem BioAssay data set” (2004).
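48-hour exposure; five concentrations; linearly interpolated endpoints. GI50 is the concentration that inhibits growth by half.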 The source made the active and inactive calls. Rule as the data show it: active = GI50 up to about 1.1 µM and inactive = higher.

How the values were obtained:
Experiment in all cases: DTP human tumour cell line panel, 48 h
DLD-1 = system: DLD-1
DMS-114 = system: DMS-114
DMS-273 = system: DMS-273
HOP-18 = system: HOP-18
LXFL 529 = system: LXFL 529
SNB-78 = system: SNB-78
RXF 631 = system: RXF 631

Measured: GI50

C=CCNC(=S)N/C=C1\C(=O)Oc2ccccc2C1=O
inactive: DLD-1 41.1 µM | DMS-114 35.2 µM | DMS-273 > 100 µM | HOP-18 46.2 µM | LXFL 529 > 100 µM | SNB-78 43.9 µM

c1ccc2c(c1)CCCc1cc3ccccc3nc1-2
inactive: DLD-1 > 100 µM | DMS-114 26.9 µM | HOP-18 > 100 µM | LXFL 529 > 100 µM | SNB-78 85.7 µM

CCN(CC)CCN1CCc2c([nH]c3ccccc23)C1c1cccnc1 (stereo not given)
inactive: DLD-1 > 100 µM | DMS-114 > 100 µM | DMS-273 > 100 µM | HOP-18 > 100 µM | LXFL 529 > 100 µM | SNB-78 > 100 µM

C[C@]12CCC(=O)C(O)=C1CC[C@@H]1C2CC[C@]2(C)Nc3c(cnn3-c3ccccc3)CC12 (stereo not given in full)
inactive: DLD-1 > 100 µM | DMS-273 56.4 µM | LXFL 529 42.6 µM | RXF 631 29.9 µM | SNB-78 > 100 µM

O=c1[nH]c(=O)n(C2OC(CO)C(O)C2O)cc1OCc1ccccc1 (stereo not given)
inactive: DLD-1 > 59.8 µM | DMS-114 > 57.9 µM | DMS-273 > 75.9 µM | HOP-18 > 100 µM | LXFL 529 > 80.4 µM | RXF 631 > 100 µM | SNB-78 > 100 µM

Cc1c(Cl)cccc1NC(=O)C(=O)C1C(=O)CC(C)(C)CC1=O
inactive: DLD-1 > 100 µM | DMS-114 > 100 µM | DMS-273 > 100 µM | HOP-18 > 100 µM | LXFL 529 > 100 µM | RXF 631 > 100 µM | SNB-78 > 100 µM

NC(CCCNCc1ccccc1O)C(=O)O (stereo not given)
inactive: DLD-1 > 100 µM | DMS-114 > 100 µM | DMS-273 > 100 µM | HOP-18 > 100 µM | LXFL 529 > 100 µM | SNB-78 > 100 µM

COc1ccc(C2=Nc3ccccc3N=C(SC)C2)cc1
inactive: DLD-1 42.8 µM | DMS-114 44.1 µM | DMS-273 73.6 µM | HOP-18 > 100 µM | LXFL 529 46.1 µM | RXF 631 47 µM | SNB-78 > 100 µM

Cc1ccc(-c2cc(=O)c3cc(C)c(C)c(C(=O)O)c3o2)cc1N
inactive: DLD-1 > 100 µM | DMS-114 > 100 µM | HOP-18 > 100 µM | LXFL 529 > 100 µM | RXF 631 > 100 µM | SNB-78 > 100 µM

O=C(NCCO)c1ccc([N+](=O)[O-])cc1
inactive: DLD-1 > 100 µM | DMS-114 > 100 µM | DMS-273 > 100 µM | LXFL 529 > 100 µM | RXF 631 > 100 µM | SNB-78 > 100 µM

Cc1cc(N(CCC#N)CCC#N)ccc1/C=C(\NC(=O)/C=C/c1ccccc1)NC(=O)Nc1ccccc1C
inactive: DLD-1 78.3 µM | DMS-114 89.7 µM | DMS-273 > 100 µM | LXFL 529 47.6 µM | RXF 631 84.1 µM | SNB-78 51.5 µM

COc1cc2c(cc1OC)CC(=O)Nc1cc(OC)c(OC)cc1CC2
inactive: DLD-1 40.3 µM | DMS-114 24.3 µM | DMS-273 24.8 µM | HOP-18 > 100 µM | LXFL 529 > 73.3 µM | RXF 631 > 75.9 µM | SNB-78 > 95.5 µM

CC(C)=CC1C[C@H](C2CC=C3C2(C)CCC2[C@@]3(C)C(=O)CC3[C@]2(C)C=CC(=O)[C@]3(C)CO)CO1 (stereo not given in full)
inactive: DMS-114 4.23 µM | DMS-273 5.66 µM | HOP-18 11 µM | LXFL 529 3.45 µM | SNB-78 13.6 µM

CC(=O)C1C(c2ccccc2)C2(C)OC(=O)C(C#N)C12C (stereo not given)
inactive: DLD-1 > 100 µM | DMS-114 > 100 µM | DMS-273 > 100 µM | HOP-18 > 100 µM | LXFL 529 > 100 µM | SNB-78 > 100 µM

C=CC(=O)Nc1ccccc1CC(c1c[nH]c2ccccc12)c1c[nH]c2ccccc12
inactive: DMS-114 15.5 µM | DMS-273 17.7 µM | LXFL 529 16.1 µM | RXF 631 16.7 µM | SNB-78 16.3 µM
